{
  "source": "patent US20040067531A1",
  "about": "“Methods of modulating protein tyrosine kinase function with substituted indolinone compounds” (SUGEN, INC., priority 1997, published 2004)",
  "key": {"[1]": {"target": "PDGF receptor (Homo sapiens, UniProt P09619)", "sequence (P09619 33-1106)": "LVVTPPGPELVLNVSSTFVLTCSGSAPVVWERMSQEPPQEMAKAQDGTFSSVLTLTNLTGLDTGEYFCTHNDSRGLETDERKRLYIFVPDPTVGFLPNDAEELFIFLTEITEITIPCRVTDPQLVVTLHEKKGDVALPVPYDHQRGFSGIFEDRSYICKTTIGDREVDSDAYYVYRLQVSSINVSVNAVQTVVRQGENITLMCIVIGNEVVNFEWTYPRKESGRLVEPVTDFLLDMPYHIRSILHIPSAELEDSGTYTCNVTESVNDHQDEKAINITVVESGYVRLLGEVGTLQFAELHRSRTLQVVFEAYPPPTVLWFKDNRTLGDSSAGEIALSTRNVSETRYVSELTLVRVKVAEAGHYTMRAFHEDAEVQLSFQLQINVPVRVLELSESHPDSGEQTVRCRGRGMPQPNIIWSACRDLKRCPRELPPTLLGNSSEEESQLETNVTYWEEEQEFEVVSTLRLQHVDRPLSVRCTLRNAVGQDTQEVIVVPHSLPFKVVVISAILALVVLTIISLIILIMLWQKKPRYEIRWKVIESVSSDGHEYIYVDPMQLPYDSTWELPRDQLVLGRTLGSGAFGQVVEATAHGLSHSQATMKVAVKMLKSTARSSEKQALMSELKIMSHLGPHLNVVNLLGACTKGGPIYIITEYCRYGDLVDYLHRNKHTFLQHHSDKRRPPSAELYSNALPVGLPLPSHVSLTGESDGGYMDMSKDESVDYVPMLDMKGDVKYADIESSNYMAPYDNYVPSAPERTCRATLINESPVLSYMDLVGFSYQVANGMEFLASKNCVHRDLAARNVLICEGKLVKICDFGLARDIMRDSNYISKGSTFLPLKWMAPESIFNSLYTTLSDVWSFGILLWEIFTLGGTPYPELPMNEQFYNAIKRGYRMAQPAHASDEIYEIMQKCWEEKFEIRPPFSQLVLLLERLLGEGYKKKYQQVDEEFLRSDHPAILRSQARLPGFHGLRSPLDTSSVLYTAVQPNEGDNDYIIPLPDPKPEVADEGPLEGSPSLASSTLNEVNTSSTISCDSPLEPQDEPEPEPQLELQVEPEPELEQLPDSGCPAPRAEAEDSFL", "test": "ELISA assay measuring the kinase activity of the PDGF receptor in U1242 cells", "format": "cell-based", "details": "ligand stimulation, phosphotyrosine ELISA", "description": "All cell culture media, glutanine, and fetal bovine serum were purchased from Gibco Life Technologies (Grand Island, N.Y.) unless otherwise specified. All cells were grown in a humid atmosphere of 90-95% air and 5-10% CO2 at 37° C. All cell lines were routinely subcultured twice a week and were negative for mycoplasma as determined by the Mycotect method (Gibco).\nFor ELISA assays, cells (U1242, obtained from Joseph Schlessinger, NYU) were grown to 80-90% confluency in growth medium (MEM with 10% FBS, NEAA, 1 mM NaPyr and 2 mM GLN) and seeded in 96-well tissue culture plates in 0.5% serum at 25,000 to 30,000 cells per well. After overnight incubation in 0.5% serum-containing medium cells were changed to serum-free medium and treated with test compound for 2 hr in a 5% CO21 37° C. incubator. […] Absorbance at 410 nm with a reference wavelength of 630 nm was recorded about 15 to 30 min after ABTS addition.\n(§1) The IC50 values were measured for several of the compounds of the invention."}, "[2]": {"target": "Myc-GyrB-FGFR fusion protein (Homo sapiens, UniProt P11362)", "sequence (P11362 398-822)": "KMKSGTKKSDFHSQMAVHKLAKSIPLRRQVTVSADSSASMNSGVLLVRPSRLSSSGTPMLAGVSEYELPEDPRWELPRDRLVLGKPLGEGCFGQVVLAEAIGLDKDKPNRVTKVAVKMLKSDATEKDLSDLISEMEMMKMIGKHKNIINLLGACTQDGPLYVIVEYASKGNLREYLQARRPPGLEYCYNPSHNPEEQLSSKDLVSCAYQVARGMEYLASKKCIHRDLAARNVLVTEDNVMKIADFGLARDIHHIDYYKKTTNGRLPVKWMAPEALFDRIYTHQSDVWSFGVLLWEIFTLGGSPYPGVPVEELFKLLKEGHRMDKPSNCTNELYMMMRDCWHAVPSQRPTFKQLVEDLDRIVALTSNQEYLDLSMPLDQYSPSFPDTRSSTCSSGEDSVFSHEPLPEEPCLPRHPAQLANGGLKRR", "test": "ELISA assay measuring the kinase activity of the FGF receptor (Myc-GyrB-FGFR from COS/FGFR cell lysate)", "format": "biochemical", "details": "7 μM ATP", "procedure": "The following protocol describes the reagents and procedures used to analyze protein-tyrosine kinase activity of the Myc-GyrB-FGFR fusion protein.\nCoat Corning 96 well ELISA plates with 1.0 μg/well of Rabbit αGyrB antibody in PBS for a total well volume of 100 μL. Store overnight at 4° C.\nRemove unbound Rabbit antibody by inverting plate to remove liquid. Pat plate on a paper towel to remove excess liquid and bubbles\nAdd 100 μL of Blocking Buffer (TBB) to each well. Incubate while shaking on a microliter plate shaker at room temperature for 30 min.\nWash 4× with TBST. Pat plate on a paper towel to remove excess liquid and bubbles.\nAdd 15 μg COS/FGFR cell lysate Myc-GyrB-FGFR sources per well in HNTG for a final volume of 100 μL per well. Incubate while shaking on a micro-liter plate shaker at room temperature for 2 hours.\nWash 4× with TBST as described in step 4.\nAdd 80 μL of 1× kinase buffer per well.\nDilute compunds/extracts 1:10 (or as stated otherwise) in 1× kinase buffer +1% DMSO in a polypropylene 96 well plate.\nAt this point diluted Compounds/Extracts are added to the ELISA plate. […]"}, "[3]": {"target": "T1, EGFR protein (Homo sapiens, UniProt P00533)", "T1 construct": "A431 cell lysate; endogenous in cells; host or cells: A431", "T1 sequence (P00533 25-1210)": "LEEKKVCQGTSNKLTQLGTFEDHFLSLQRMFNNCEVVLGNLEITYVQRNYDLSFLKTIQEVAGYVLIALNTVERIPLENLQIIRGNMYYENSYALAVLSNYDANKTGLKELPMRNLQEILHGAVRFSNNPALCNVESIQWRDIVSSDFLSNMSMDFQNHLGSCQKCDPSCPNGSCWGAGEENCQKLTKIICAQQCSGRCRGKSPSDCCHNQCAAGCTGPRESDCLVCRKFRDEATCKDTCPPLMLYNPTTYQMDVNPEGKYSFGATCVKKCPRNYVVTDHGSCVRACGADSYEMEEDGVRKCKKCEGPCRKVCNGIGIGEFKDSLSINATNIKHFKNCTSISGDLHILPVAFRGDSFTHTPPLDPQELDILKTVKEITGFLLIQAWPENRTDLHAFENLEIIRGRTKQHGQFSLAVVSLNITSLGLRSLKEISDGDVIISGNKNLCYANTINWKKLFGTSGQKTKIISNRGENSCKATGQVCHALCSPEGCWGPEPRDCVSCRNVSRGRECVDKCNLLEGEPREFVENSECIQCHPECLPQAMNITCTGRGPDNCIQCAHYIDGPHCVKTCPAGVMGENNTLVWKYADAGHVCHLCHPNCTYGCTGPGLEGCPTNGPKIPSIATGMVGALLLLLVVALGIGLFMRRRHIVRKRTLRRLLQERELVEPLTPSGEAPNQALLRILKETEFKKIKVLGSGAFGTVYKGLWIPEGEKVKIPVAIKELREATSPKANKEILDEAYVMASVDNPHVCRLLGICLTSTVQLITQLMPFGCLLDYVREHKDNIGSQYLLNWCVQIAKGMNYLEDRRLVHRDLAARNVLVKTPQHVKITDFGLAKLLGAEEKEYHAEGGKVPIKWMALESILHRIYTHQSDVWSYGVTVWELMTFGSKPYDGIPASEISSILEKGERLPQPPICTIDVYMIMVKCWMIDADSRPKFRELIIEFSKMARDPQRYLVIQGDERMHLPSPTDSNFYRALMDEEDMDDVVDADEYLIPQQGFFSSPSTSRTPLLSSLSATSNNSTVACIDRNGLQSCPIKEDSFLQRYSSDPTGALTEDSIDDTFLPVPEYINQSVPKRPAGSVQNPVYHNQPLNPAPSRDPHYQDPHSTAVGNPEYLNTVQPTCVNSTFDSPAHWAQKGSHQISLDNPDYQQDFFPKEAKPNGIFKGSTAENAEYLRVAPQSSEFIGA", "test": "ELISA assay measuring the kinase activity of the EGF receptor (EGFR captured from A431 cell lysate)", "format": "biochemical", "description": "The following protocol describes the reagents and procedures used to analyze protein tyrosine kinase activity on the EGFR protein.\nAll of the following steps are conducted at room temperature unless it is specifically indicated. All ELISA plate washing is by rinsing 4× with TBST.\n1. Coat Corning 96 well ELISA plates with 0.5 μg/well of SUMO1 in a volume of 100 μL PBS. Store overnight at 4° C.\n2. Remove unbound SUMO1 by inverting plate to remove liquid. Wash plates with distilled water. Pat plate on a paper towel to remove excess liquid and bubbles\n3. Add 150 μL of Blocking Buffer to each well. Incubate while shaking on a microliter plate shaker at room temperature for 30 min.\n4. Wash 3× with deionized water, then once with TBST. Pat plate on a paper towel to remove excess liquid and bubbles.\n5. Dilute lysate in PBS (7 μg of lysate/100 μL of PBS).\n6. Add 100 μL of diluted lysate to each well. Shake at room temperature for 60 min.\n7. Wash as described in step 4.\n8. Add 120 μL TBS to ELISA plate containing captured EGFR.\n9. Dilute drugs/extracts 1:10 (unless specified otherwise) in TBS in 96-well polypropylene plates.\n10. Add 13.5 μL diluted drugs/extracts to ELISA plate.\n11. Incubate for 30 minutes while shaking at room temperture.\n12. […] Incubate while shaking on a micro-liter plate shaker at room temperature for 5 min.\n13. Stop Kinase reaction with the addition of 16.5 μL of 200 mM EDTA pH 8.0 to all wells.\n14. Wash 4× with deionized water and twice with TBST.\n15. Add 100 μL per well of anti-phosphotyrosine (1:3000 dilution in TBST). Incubate while shaking on a micro-liter plate shaker 30-45 minutes at room temperature while shaking.\n16. Wash as described in step 4.\n17. Add 100 μL per well of biosource Goat anti-rabbit IgG peroxidase conjugate (1:2000 dilution in TBST). Incubate 30 min. at room temerature while shaking.\n18. Wash as described in step 4.\n19. Add 100 μL of ABTS/H2O2 solution to each well.\n20. Incubate 5 to 15 minutes while shaking. Remove any bubbles.\n21. If necessary stop reaction with the addition of 10 μL of 0.2 M HCl/well.\n22. Read assay on Dynatech MR7000 ELISA Plate Reader.\nas §1"}},
  "data": [
    {"smiles": "O=C(O)CCc1c(C=C2C(=O)Nc3ccccc32)[nH]c2c1CCCC2", "note": "[IN-001, 3-[2-(2-Oxo-1,2-dihydro-indol-3-ylidenemethyl)-4,5,6,7-tetrahydro-1H-indol-3-yl]-propionic acid]", "values": [
      {"measurement": "melting point", "value": "263 to 265", "unit": "°C"}
    ]},
    {"smiles": "O=C(O)CCc1c(C=C2C(=O)Nc3ccc(Cl)cc32)[nH]c2c1CCCC2", "note": "[IN-002, 3-[2-(5-Chloro-2-oxo-1,2-dihydro-indol-3-ylidenemethyl)-4,5.6,7-tetrahydro-1H-indol-3-yl]-propionic acid]", "values": [
      {"measurement": "IC50", "setting": "[1]", "value": 0.05, "unit": "µM"},
      {"measurement": "IC50", "setting": "[2]", "value": 0.37, "unit": "µM"}
    ]},
    {"smiles": "O=C(CCc1c(C=C2C(=O)Nc3ccccc32)[nH]c2c1CCCC2)NCCN1CCOCC1", "note": "[IN-013, N-(2-Morpholin-4-yl-ethyl)-3-[2-(2-oxo-1,2-dihydro-indol-3-ylidenemethyl)-4,5,6,7-tetrahydro-1H-indol-3-yl]-propionamide]", "values": [
      {"measurement": "melting point", "value": "256 to 258", "unit": "°C"}
    ]},
    {"smiles": "Cc1c[nH]c(C=C2C(=O)Nc3ccccc32)c1CCC(=O)O", "note": "[IN-026, 3-[4-Methyl-2-(2-oxo-1,2-dihydro-indol-3-ylidenemethyl)-1H-pyrrol-3-yl]-propionic acid]", "values": [
      {"measurement": "IC50", "setting": "[3]", "value": "> 100", "unit": "µM"}
    ]},
    {"smiles": "Cc1c[nH]c(C=C2C(=O)Nc3ccc(Cl)cc32)c1CCC(=O)O", "note": "[IN-027, 3-[2-(5-Chloro-2-oxo-1,2-dihydro-indol-3-ylidenemethyl)-4-methyl-1H-pyrrol-3-yl]-propionic acid]", "values": [
      {"measurement": "IC50", "setting": "[3]", "value": "> 100", "unit": "µM"}
    ]},
    {"smiles": "COc1ccc2c(c1)NC(=O)C2=Cc1[nH]cc(C)c1CCC(=O)O", "note": "[IN-028, 3-[2-(6-Methoxy-2-oxo-1,2-dihydro-indol-3-ylidenemethyl)-4-methyl-1H-pyrrol-3-yl]-propionic acid]", "values": [
      {"measurement": "IC50", "setting": "[3]", "value": "> 100", "unit": "µM"}
    ]},
    {"smiles": "Cc1c[nH]c(C=C2C(=O)Nc3cccc(C)c32)c1CCC(=O)O", "note": "[IN-029, 3-[2-(4-Methyl-2-oxo-1,2-dihydro-indol-3-ylidenemethyl)-4-methyl-1H-pyrrol-3-yl]-propionic acid]", "values": [
      {"measurement": "IC50", "setting": "[3]", "value": "> 100", "unit": "µM"}
    ]},
    {"smiles": "Cc1c[nH]c(C=C2C(=O)Nc3cc(Cl)ccc32)c1CCC(=O)O", "note": "[IN-030, 3-[2-(6-Chloro-2-oxo-1,2-dihydro-indol-3-ylidenemethyl)-4-methyl-1H-pyrrol-3-yl]-propionic acid]", "values": [
      {"measurement": "IC50", "setting": "[3]", "value": 98.1, "unit": "µM"}
    ]},
    {"smiles": "Cc1c[nH]c(C=C2C(=O)Nc3ccc(Br)cc32)c1CCC(=O)O", "note": "[IN-031, 3-[2-(5-Bromo-2-oxo-1,2-dihydro-indol-3-ylidenemethyl)-4-methyl-1H-pyrrol-3-yl]-propionic acid]", "values": [
      {"measurement": "IC50", "setting": "[3]", "value": "> 100", "unit": "µM"}
    ]}
  ]
}
